{
  "source": "patent US20260335277A1",
  "about": "“CHLOROTONIL DERIVATIVES” (priority 2023, published 2026)",
  "key": {"[1]": {"tested_on": "mature gametocytes (stages IV and V)", "assay": "Activity against mature gametocytes (stage IV-V), bioluminescence assay", "assay_type": "cell-based, P. falciparum", "procedure": "Activity against gametocytes was determined using an in vitro bioluminescence assay as described previously (doi.org/10.1371/journal.pone.0035019)."}, "[2]": {"tested_on": "E. faecium", "assay": "MIC 50/90 profiling in multidrug-resistant clinical isolates", "assay_type": "cell-based", "procedure": "(§1) Minimal inhibitory concentration (MIC) of the compounds in the present invention was determined using broth microdilution performed according to EUCAST guidelines (ISO20776-1:2019). S. aureus ATCC29213 and E. faecalis ATCC29212 served as quality control strains.\n(§2) Activity of dehalogenil against multidrug-resistant clinical isolates of S. aureus (n=100) and Enterococcus spp. […] Compared to the standard of care (linezolid, daptomycin and tigecyclin), dehalogenil MIC90 was lowered in both pathogens by 20-40-fold with unimodal distribution indicating no pre-existing resistances."}, "[3]": {"tested_on": "clinical isolates of S. aureus", "assay": "MIC 50/90 profiling in multidrug-resistant clinical isolates", "assay_type": "cell-based", "procedure": "as §1, §2"}, "[4]": {"assay": "Aqueous solubility", "assay_type": "physicochemical", "details": "for solubility thermodynamic: read-out: semi thermodynamic solubility", "procedure": "(§3) Complementing the toxicity profiling, ADME properties of the lead dehalogenil were determined. This had not been possible for the first generation frontrunner ChB1-Epo2 or the natural product ChA because of their poor limit of detection. […] Across species (mouse, rat, human), metabolic stability is high while plasma stability is moderate. Besides, no hemolysis and no inhibition of the metabolically important enzyme CYP3A4 was observed by both dehalogenil and ChA. Plasma protein binding (PPB) is >99.4% in all species."}, "[5]": {"assay": "Plasma stability", "assay_type": "in vitro ADME", "details": "for half-life: plasma, read-out: plasma stability t1/2 (converted)", "procedure": "as §3"}, "[6]": {"assay": "Plasma protein binding (PPB)", "assay_type": "in vitro ADME", "procedure": "as §3"}, "[7]": {"assay": "Hemolysis", "assay_type": "cell-based", "procedure": "as §3"}, "[8]": {"assay": "Inhibition of CYP3A4", "assay_type": "in vitro ADME", "details": "cyp3a4", "procedure": "as §3"}, "[9]": {"tested_on": "CYP3A4", "assay": "Inhibition of CYP3A4", "assay_type": "in vitro ADME", "procedure": "as §3"}, "[10]": {"assay": "In vivo PK, peroral vs. intravenous administration, peroral bioavailability", "set-up": "species or system mouse", "details": "for half-life: read-out: t1/2z (converted)", "description": "According to the current invention, intravenous injection in vivo was possible for the first time using a vehicle consisting of 50% ClearSol™ in phosphate buffered saline (PBS) pH 7.4."}, "[11]": {"assay": "In vivo PK after subcutaneous application (50% ClearSol/PBS pH 7.4)", "set-up": "species or system mouse", "details": "for Cz / tz / AUC(0-t) / Cmax / Tmax: n = 3; for AUC(0-t) / Cmax / Tmax: mouse, in vivo", "procedure": "Dehalogenil was further applied subcutaneously at 5, 10 and 25 mg/kg in 50% ClearSol™/PBS pH 7.4."}, "[12]": {"details": "Enterococcus faecium, E. faecium (n = 98)"}, "[13]": {"details": "Staphylococcus aureus, S. aureus clinical isolates (n = 100)"}, "[14]": {"details": "mouse, in vivo, mice, 7.5 mg/kg iv, mean (n = 3)"}, "[15]": {"details": "mouse, in vivo, mice, 10 mg/kg po, mean (n = 3)"}},
  "note": "Entries after “also recorded” stand apart in the source; their conditions may differ. Like-named read-outs stand apart in the source and are kept apart here.",
  "data": [
    {"smiles": "CC1=CC(C)C2C(C=CC3C(C)C=CC=CC(C)OC(=O)C(C)C(=O)CC(=O)C32)C1", "note": "(centres unmarked) [dehalogenil]", "values": [
      {"measurement": "IC50", "setting": "[1]", "result": 0.0058, "unit": "µM"},
      {"measurement": "MIC", "setting": "[2]; Enterococcus faecium, read-out: MIC range", "result": "0.00625 to 0.2", "unit": "µg/mL"},
      {"measurement": "MIC50", "setting": "[2]; [12]", "result": 0.025, "unit": "µg/mL"},
      {"measurement": "MIC90", "setting": "[2]; [12]", "result": 0.1, "unit": "µg/mL"},
      {"measurement": "MIC90 lowered compared to standard of care", "setting": "[2]; vs linezolid, daptomycin and tigecyclin, Enterococcus spp. (n=98)", "result": "20-40 fold"},
      {"measurement": "MIC", "setting": "[3]; [13]", "result": "0.025 to 0.4", "unit": "µg/mL"},
      {"measurement": "MIC50", "setting": "[3]; [13]", "result": 0.1, "unit": "µg/mL"},
      {"measurement": "MIC90", "setting": "[3]; [13]", "result": 0.2, "unit": "µg/mL"},
      {"measurement": "MIC90 lowered compared to standard of care", "setting": "[3]; vs linezolid, daptomycin and tigecyclin, S. aureus (n=100)", "result": "20-40 fold"},
      {"measurement": "solubility thermodynamic", "setting": "[4]; pH 5.0", "result": "34.9 ± 2.7", "unit": "µM"},
      {"measurement": "solubility thermodynamic", "setting": "[4]; pH 7.4", "result": "41.4 ± 10.3", "unit": "µM"},
      {"measurement": "Solubility increase compared to the natural product ChA", "setting": "[4]; pH 7.4, vs ChA", "result": "more than 500 fold"},
      {"measurement": "solubility thermodynamic", "setting": "[4]; pH 9.0", "result": "16.5 ± 8.7", "unit": "µM"},
      {"measurement": "Solubility compared to ChB1-Epo2", "setting": "[4]; vs ChB1-Epo2, aqueous", "result": "more than doubled; also recorded: doubled aqueous solubility"},
      {"measurement": "plasma stability", "setting": "[5]; human", "result": "moderate"},
      {"measurement": "half-life", "setting": "[5]; human", "result": 1.4, "unit": "h"},
      {"measurement": "plasma stability", "setting": "[5]; mouse", "result": "moderate"},
      {"measurement": "half-life", "setting": "[5]; mouse", "result": 1.5, "unit": "h"},
      {"measurement": "plasma stability", "setting": "[5]; rat", "result": "moderate"},
      {"measurement": "half-life", "setting": "[5]; rat", "result": 1.2, "unit": "h"},
      {"measurement": "fraction unbound", "setting": "[6]; human, all species: human, read-out: Plasma protein binding (PPB)", "result": "< 0.006"},
      {"measurement": "fraction unbound", "setting": "[6]; human, read-out: plasma protein binding", "result": "< 0.004"},
      {"measurement": "fraction unbound", "setting": "[6]; mouse, all species: mouse, read-out: Plasma protein binding (PPB)", "result": "< 0.006"},
      {"measurement": "fraction unbound", "setting": "[6]; mouse, read-out: plasma protein binding", "result": "< 0.002"},
      {"measurement": "hemolysis", "setting": "[7]", "result": "no hemolysis"},
      {"measurement": "hemolysis at 20 µM", "setting": "[7]; 20 μM, human blood cells, read-out: haemolysis of human blood cells", "result": 1.4, "unit": "%"},
      {"measurement": "IC50", "setting": "[8]", "result": 16.4, "unit": "µM"},
      {"measurement": "inhibition of CYP3A4", "setting": "[9]", "result": "no inhibition"},
      {"measurement": "bioavailability", "setting": "[10]; mice, 7.5 mg/kg iv (reference)", "result": 100, "unit": "%"},
      {"measurement": "tz", "setting": "[10]; mice, 7.5 mg/kg iv, mean (n = 3)", "result": 24, "unit": "h"},
      {"measurement": "tz", "setting": "[10]; mice, 10 mg/kg po, mean (n = 3)", "result": 24, "unit": "h"},
      {"measurement": "AUC(0-inf)", "setting": "[10]; [14]", "result": 12100, "unit": "ng·h/mL"},
      {"measurement": "AUC(0-t)", "setting": "[10]; [14]", "result": 9580, "unit": "ng·h/mL"},
      {"measurement": "C0", "setting": "[10]; [14]", "result": 872, "unit": "ng/mL"},
      {"measurement": "half-life", "setting": "[10]; [14]", "result": 10.8, "unit": "h"},
      {"measurement": "bioavailability", "setting": "[10]; mouse, in vivo, mice, 10 mg/kg po vs 7.5 mg/kg iv, read-out: Bioavailability", "result": 9.5, "unit": "%"},
      {"measurement": "AUC(0-inf)", "setting": "[10]; [15]", "result": 1540, "unit": "ng·h/mL"},
      {"measurement": "AUC(0-t)", "setting": "[10]; [15]", "result": 1400, "unit": "ng·h/mL"},
      {"measurement": "Cmax", "setting": "[10]; [15]", "result": 101, "unit": "ng/mL"},
      {"measurement": "Tmax", "setting": "[10]; [15]", "result": 3, "unit": "h"},
      {"measurement": "half-life", "setting": "[10]; [15]", "result": 6.7, "unit": "h"},
      {"measurement": "bioavailability", "setting": "[10]; mouse, in vivo, rodents, oral, read-out: oral bioavailability", "result": "~10", "unit": "%"},
      {"measurement": "Cz", "setting": "[11]; mice, 5 mg/kg sc", "result": 109.0, "unit": "ng/mL"},
      {"measurement": "tz", "setting": "[11]; mice, 5 mg/kg sc", "result": 24.0, "unit": "h"},
      {"measurement": "Cz", "setting": "[11]; mice, 10 mg/kg sc", "result": 257.0, "unit": "ng/mL"},
      {"measurement": "tz", "setting": "[11]; mice, 10 mg/kg sc", "result": 24.0, "unit": "h"},
      {"measurement": "Plasma levels, subcutaneous vs intravenous", "setting": "[11]; mice, 25 mg/kg sc vs 7.5 mg/kg iv", "result": "comparable to 7.5 mg/kg dehalogenil applied intravenously"},
      {"measurement": "Cz", "setting": "[11]; mice, 25 mg/kg sc", "result": 595, "unit": "ng/mL"},
      {"measurement": "tz", "setting": "[11]; mice, 25 mg/kg sc", "result": 24.0, "unit": "h"},
      {"measurement": "Dose response after subcutaneous application", "setting": "[11]; mice, 5, 10 and 25 mg/kg sc", "result": "suitable dose response"},
      {"measurement": "AUC(0-t)", "setting": "[11]; mice, 5 mg/kg sc", "result": 2690, "unit": "ng·h/mL"},
      {"measurement": "Cmax", "setting": "[11]; mice, 5 mg/kg sc", "result": 125, "unit": "ng/mL"},
      {"measurement": "Tmax", "setting": "[11]; mice, 5 mg/kg sc", "result": 7, "unit": "h"},
      {"measurement": "AUC(0-t)", "setting": "[11]; mice, 10 mg/kg sc", "result": 8090, "unit": "ng·h/mL"},
      {"measurement": "Cmax", "setting": "[11]; mice, 10 mg/kg sc", "result": 488, "unit": "ng/mL"},
      {"measurement": "Tmax", "setting": "[11]; mice, 10 mg/kg sc", "result": 3, "unit": "h"},
      {"measurement": "AUC(0-t)", "setting": "[11]; mice, 25 mg/kg sc", "result": 18500, "unit": "ng·h/mL"},
      {"measurement": "Cmax", "setting": "[11]; mice, 25 mg/kg sc", "result": 1200, "unit": "ng/mL"},
      {"measurement": "Tmax", "setting": "[11]; mice, 25 mg/kg sc", "result": 3, "unit": "h"}
    ]}
  ]
}
